Experimental data as given in patent publication US20100331363A1, “TREATMENT OF MITOCHONDRIAL DISORDERS USING A FARNESYL TRANSFERASE INHIBITOR” (Link Medicine Corporation, priority 2008, published 2010).
Where two headings read alike, the source gives them in different places.

Assays:
INS1 cells = test: Glucolipotoxicity-induced mitochondrial fragmentation in INS1 cells; assay type: cell-based; details: 1 nM
Protocol: To determine the effect of LNK-754 on glucolipotoxicity-induced mitochondrial fragmentation, LNK-754 at 1 nM and 100 nM concentrations was cultured with INS1 cells in media containing palmitate according to methods and procedures described in Molina et. al. 2009. […] Treatment with 1 nM LNK-754 results in about a 70% increase in normal mitochondrial morphology in comparison with no treatment with LNK-754. […] Treatment with 1 nM LNK-754 results in about a 55% decrease in fragmentation induced by palmitate. Low dose LNK-754 protected INS1 cells from glucolipotoxicity-induced mitochondrial fragmentation as evident from the striking mitochondrial imaging results.

GGTase = GGTase (Homo sapiens, UniProt P49354+P53609); test: GGTase inhibitory activity, general statement; assay type: biochemical; details: selective FTase inhibitors
[1] = system: APP processing and secretion; test: APP processing and secretion in a cell culture model of pathogenic Aβ production; assay type: cell-based
Text: Finally, it is important to note that LNK-754-TS had no effect on APP processing and secretion in a cell culture model of pathogenic Aβ production (Selkoe, D. J., et al. Ann N Y Acad Sci 777, 57-64 (1996)).

LC3-II protein = LC3-II protein level in SH-SY5Y cells with or without bafilomycin A1; assay type: cell-based, human
Protocol: The observed increase in LC3-positive autophagosomes could result, in principle, from either an increased flux through the autophagy pathway or decreased autophagosome degradation (Pankiv, S., et al. J Biol Chem 282, 24131-24145 (2007); Kamada, Y., et al. J Cell Biol 150, 1507-1513 (2000)). […] In order to ascertain an increase in autophagic flux, cells were co-treated with LNK-754-TS and an inhibitor of autophagosome-lysosome fusion, bafilomycin A1 (10 nM). Bafilomycin treatment alone caused a 100% increase in the amount of LC3-II, consistent with the fact that it inhibits autophagosome degradation (FIG. 8c).

[2] = Pharmacokinetics of LNK-754-TS in mice, oral; assay type: in vivo, mouse; details: for MRT inf: read-out: MRT(0-∞)
Text: In the experimental data represented in Table 2A, a different method of drug delivery is used (oral) than in the experiment represented in FIG. 3. The best way to compare the relative coverage of the two delivery methods (oral and continuous infusion) is by comparing area-under-the-curve (AUC) values. We can compare the calculated AUC values for the continuous infusion oncology study presented in FIG. 3 and the AUC values associated with the synuclein model doses in the table. […] The AUCs of orally dosed LNK-754-TS at 0.9 mg/kg and at 0.09 mg/kg QD are 34.6 and […], respectively.
The pharmacokinetic profiles of LNK-754-TS and Zarnestra® were analyzed using methods known in the art. The results are shown in FIGS. 13-14 and the tables below.

[3] = C57BL/6, mouse, in vivo, po, 9 mg/kg, Group 5 (9 mg/kg SID), C57BL/6 mice, oral
[4] = C57BL/6, mouse, in vivo, po, 9 mg/kg, Group 6 (9 mg/kg BID), C57BL/6 mice, oral
[5] = C57BL/6, mouse, in vivo, po, 9 mg/kg, Group 9 (9 mg/kg Day 5), C57BL/6 mice, oral

SMILES: C#Cc1cccc(-c2cc(=O)n(C)c3ccc([C@](O)(c4ccc(Cl)cc4)c4cncn4C)cc23)c1 [LNK-754, (R)-6-[(4-chlorophenyl)-hydroxyl-(1-methyl-1-H-imidazol-5-yl)-methyl]-4-(3-ethynylphenyl)-1-methyl-2-(1H)-quinonlinone]
- decrease in fragmentation induced by palmitate (INS1 cells): ~55%
- increase in normal mitochondrial morphology (INS1 cells; palmitate, vs no treatment): ~70%
- GGTase inhibitory activity (GGTase): little to no GGTase inhibitory activity

SMILES: C#Cc1cccc(-c2cc(=O)n(C)c3ccc([C@](O)(c4ccc(Cl)cc4)c4cncn4C)cc23)c1 [LNK-754-TS, (R)-6-[(4-chlorophenyl)-hydroxyl-(1-methyl-1-H-imidazol-5-yl)-methyl]-4-(3-ethynylphenyl)-1-methyl-2-(1H)-quinonlinone (2S, 3S)-dihydroxybutanedioate]
- APP processing and secretion [1]: no effect
- additional increase in LC3-II over bafilomycin alone (LC3-II protein; 100 nM in combination with bafilomycin A1 10 nM): 75%
- accumulation of LC3-I or LC3-II protein (LC3-II protein; compound alone, without bafilomycin): did not cause accumulation
- AUC ([2]; 0.9 mg/kg oral, QD day 1, 5% beta-cyclodextrin, mice): 34.6 ng·h/mL
- Cmax ([2]; C57BL/6, mouse, in vivo, po, 0.09 mg/kg, 0.09 mg/kg oral, QD day 1, 5% beta-cyclodextrin, mice): 0.61 ng/mL
- AUC ([2]; C57BL/6, mouse, in vivo, po, 0.09 mg/kg, 0.09 mg/kg oral, QD day 1, 5% beta-cyclodextrin, mice, read-out: AUC): 0.63 ng·h/mL
- Cmax ([2]; C57BL/6, mouse, in vivo, po, 0.9 mg/kg, 0.9 mg/kg oral, QD day 1, 5% beta-cyclodextrin, mice): 31.1 ng/mL
- AUC ([2]; C57BL/6, mouse, in vivo, po, 0.9 mg/kg, 0.9 mg/kg oral, QD day 1, 5% beta-cyclodextrin, mice, read-out: AUC): 34.6 ng·h/mL
- AUC ([2]; C57BL/6, mouse, in vivo, po, 9 mg/kg, 9 mg/kg BID oral, mice (text summary of day 1 and day 5), read-out: AUC): 2000 to 2600 ng·h/mL
- Cmax ([2]; C57BL/6, mouse, in vivo, po, 9 mg/kg, 9 mg/kg oral, BID day 1, 20% beta-cyclodextrin, mice): 1380 ng/mL
- AUC ([2]; C57BL/6, mouse, in vivo, po, 9 mg/kg, 9 mg/kg oral, BID day 1, 20% beta-cyclodextrin, mice, read-out: AUC): 2100 ng·h/mL
- Cmax ([2]; C57BL/6, mouse, in vivo, po, 9 mg/kg, 9 mg/kg oral, BID day 5, 20% beta-cyclodextrin, mice): 1480 ng/mL
- AUC ([2]; C57BL/6, mouse, in vivo, po, 9 mg/kg, 9 mg/kg oral, BID day 5, 20% beta-cyclodextrin, mice, read-out: AUC): 2630 ng·h/mL
- AUC(0-inf) [2, 3]: 752 ng·h/mL
- AUC(0-t) [2, 3]: 730 ng·h/mL
- Cmax [2, 3]: 318 ng/mL
- half-life [2, 3]: 1.5 h
- MRT inf [2, 3]: 2.38 h
- AUC(0-inf) [2, 4]: 2290 ng·h/mL
- AUC(0-t) [2, 4]: 2100 ng·h/mL
- Cmax [2, 4]: 1390 ng/mL
- half-life [2, 4]: 5.04 h
- MRT inf [2, 4]: 2.67 h
- AUC(0-inf) [2, 5]: 2630 ng·h/mL
- AUC(0-t) [2, 5]: 2630 ng·h/mL
- Cmax [2, 5]: 1490 ng/mL
- half-life [2, 5]: 0.62 h
- MRT inf [2, 5]: 1.43 h
- Tmax ([2]; C57BL/6, mouse, in vivo, 0.09 mg/kg oral, QD day 1, 5% beta-cyclodextrin, mice): 0.5 h
- Tmax ([2]; C57BL/6, mouse, in vivo, 0.9 mg/kg oral, QD day 1, 5% beta-cyclodextrin, mice): 0.5 h
- Tmax ([2]; C57BL/6, mouse, in vivo, 9 mg/kg oral, BID day 1, 20% beta-cyclodextrin, mice): 1 h
- Tmax ([2]; Group 5 (9 mg/kg SID), C57BL/6 mice, oral): 1 h
- Tmax ([2]; Group 6 (9 mg/kg BID), C57BL/6 mice, oral): 1 h
- Tmax ([2]; Group 9 (9 mg/kg Day 5), C57BL/6 mice, oral): 1 h
